Data: the NIST ThermoML archive (doi:10.1016/j.jct.2009.11.012)
± gives the expanded uncertainty stated by the source.

Legend:
[1] = molar enthalpy of transition or fusion; conditions: 298.15 K; Crystal 2; DSC
[2] = DTA
[3] = Molar enthalpy of transition or fusion; conditions: Crystal 2; DSC
[4] = molar heat capacity at constant pressure; conditions: 101.33 kPa, Small sample (50 mg) DSC

O=C(Nc1ccc(Cl)cc1)Nc1ccc(Cl)c(Cl)c1 [N-(4-chlorophenyl)-N'-(3,4-dichlorophenyl)urea]
Conditions | Molar enthalpy of transition or fusion [kcal/mol] | molar enthalpy of transition or fusion [kcal/mol]
[1] | – | 43.5 ± 1.12
[3] | 1.46 ± 0.0717 | –

[2]
Conditions | Normal melting temperature [°C] | Triple point temperature [K]
Crystal 1 | 254.4 ± 0.9 | –
Crystal 2 | – | 428 ± 2

[4]
Conditions | molar heat capacity at constant pressure [J/K/mol]
263.15 K, Crystal 2 | 268.71 ± 5.5
265.15 K, Crystal 2 | 269.88 ± 5.5
270.15 K, Crystal 2 | 272.35 ± 5.5
275.15 K, Crystal 2 | 274.29 ± 5.6
280.15 K, Crystal 2 | 276.34 ± 5.6
285.15 K, Crystal 2 | 278.5 ± 5.6
290.15 K, Crystal 2 | 280.82 ± 5.6
295.15 K, Crystal 2 | 282.87 ± 5.7
298.15 K, Crystal 2 | 284.13 ± 5.7
300.15 K, Crystal 2 | 285.18 ± 5.7
305.15 K, Crystal 2 | 287.71 ± 5.7
310.15 K, Crystal 2 | 290.49 ± 5.7
315.15 K, Crystal 2 | 290.67 ± 5.7
320.15 K, Crystal 2 | 294.23 ± 5.8
325.15 K, Crystal 2 | 294.87 ± 5.8
330.15 K, Crystal 2 | 297.95 ± 5.8
335.15 K, Crystal 2 | 299.93 ± 5.8
340.15 K, Crystal 2 | 302.05 ± 5.8
345.15 K, Crystal 2 | 304.25 ± 5.9
350.15 K, Crystal 2 | 307.35 ± 5.9
355.15 K, Crystal 2 | 310.57 ± 5.9
360.15 K, Crystal 2 | 313.61 ± 6
365.15 K, Crystal 2 | 316.56 ± 6
370.15 K, Crystal 2 | 318.53 ± 6
375.15 K, Crystal 2 | 320.86 ± 6
380.15 K, Crystal 2 | 322.77 ± 6.1
385.15 K, Crystal 2 | 325.84 ± 6.1
390.15 K, Crystal 2 | 328.48 ± 6.1
395.15 K, Crystal 2 | 330.98 ± 6.2
400.15 K, Crystal 2 | 333.62 ± 6.2
405.15 K, Crystal 2 | 335.55 ± 6.2
410.15 K, Crystal 2 | 339.3 ± 6.2
475.15 K, Crystal 1 | 432.35 ± 18
480.15 K, Crystal 1 | 436.61 ± 19
485.15 K, Crystal 1 | 444.02 ± 19
490.15 K, Crystal 1 | 452.78 ± 19
495.15 K, Crystal 1 | 464.93 ± 20
